Data published in article PMC10667104, “Biosynthesis of natural and halogenated plant monoterpene indole alkaloids in yeast” (Nature Chemical Biology, 2023).

Target: T1, ADRA2A (Homo sapiens, UniProt P08913)
T1 sequence (P08913 1-465): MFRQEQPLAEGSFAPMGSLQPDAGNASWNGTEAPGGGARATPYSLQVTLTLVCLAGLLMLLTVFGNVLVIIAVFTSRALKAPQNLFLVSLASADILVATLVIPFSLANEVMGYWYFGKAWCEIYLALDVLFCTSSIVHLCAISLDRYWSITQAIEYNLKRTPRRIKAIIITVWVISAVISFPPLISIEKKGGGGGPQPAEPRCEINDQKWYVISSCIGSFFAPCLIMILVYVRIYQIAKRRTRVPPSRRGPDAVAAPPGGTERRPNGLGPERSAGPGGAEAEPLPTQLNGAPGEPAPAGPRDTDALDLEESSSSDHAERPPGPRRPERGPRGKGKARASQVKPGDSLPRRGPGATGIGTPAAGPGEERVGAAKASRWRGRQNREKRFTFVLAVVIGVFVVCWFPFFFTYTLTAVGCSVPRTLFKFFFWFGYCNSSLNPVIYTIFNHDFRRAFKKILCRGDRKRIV
Assay: cell-based

IC50: 59 µM
Structure (SMILES): COC(=O)C1=CO[C@@H](C)[C@@H]2Cn3ccc4c5ccccc5nc-4c3C[C@H]12 [1a, alstonine]
